Each structure is given as a SMILES string. Like-named read-outs stand apart in the source and are kept apart here.

The target in assay [1] is T1, 5-HT1A serotonin receptor (Rattus norvegicus, UniProt P19327).
T1 construct: Hippocampal tissue from male Sprague Dawley rats is dissected and homogenized; from tissue; host or cells: hippocampus of male Sprague Dawley rats, membrane homogenate
T1 sequence (P19327 1-422): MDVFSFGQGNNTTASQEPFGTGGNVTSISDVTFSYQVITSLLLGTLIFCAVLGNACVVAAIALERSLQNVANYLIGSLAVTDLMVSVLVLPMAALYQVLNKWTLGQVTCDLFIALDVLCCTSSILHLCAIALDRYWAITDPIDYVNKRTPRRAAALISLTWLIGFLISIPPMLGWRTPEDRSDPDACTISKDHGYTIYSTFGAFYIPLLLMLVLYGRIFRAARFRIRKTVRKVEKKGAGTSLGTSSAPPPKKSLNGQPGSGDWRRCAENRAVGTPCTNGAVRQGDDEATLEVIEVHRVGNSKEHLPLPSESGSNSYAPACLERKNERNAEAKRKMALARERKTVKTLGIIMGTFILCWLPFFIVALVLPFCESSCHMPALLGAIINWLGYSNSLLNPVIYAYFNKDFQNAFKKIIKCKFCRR
The assay can be described thus: inhibition of 5-HT1A serotonin receptor binding (3H-8-OH-DPAT). Particulars: rat hippocampal tissue; for inhibition at 0.1 µM: at 100 nM. The arrangement: species or system male Sprague Dawley rats. The method, then: The assay is carried out as follows: Hippocampal tissue from male Sprague Dawley rats is dissected and homogenized on ice in 40 volumes of buffer A (50 mM Tris HCl, pH = 7.7) using a Polytron homogenizer at setting 5 for 3 x 15 second bursts. The homogenate is then centrifuged at 20,000 rpm (RC5-B; 50,000 g) and the supernatant discarded. The pellet is resuspended in 40 volumes of the same buffer and incubated at 37°C for 10 minutes to aid in the removal of endogenous serotonin. The homogenate is then centrifuged (as above) and the supernatant discarded. The pellet is then resuspended in 100 volumes of buffer B (50 mM Tris HCl, pH = 7.7 containing 0.1% ascorbate, 10 µM pargyline and 4 mM CaCl₂) and sonicated. An aliquot is taken for protein determination by the Lowry method and the remainder stored frozen at -70°C until used.
The homogenate (50 µL; 0.4-0.6 mg protein/sample) is incubated with 100 µL (1.5-1.8 nM) ³H-8-hydroxy-2-(di-n-propylamino)tetraline (³H-8-OH-DPAT) in a final volume of 2 mL of buffer for 10 minutes at 37°C. At the end of the incubation, 3 mL of cold buffer A are added to each tube, and the contents rapidly filtered through Whatman GF/B glass filters. The filters are then rapidly washed 2 times with 3 mL of the same buffer, placed in scintillation vials, and shaken for 15 minutes with 10 mL of Hydrofluor (National Diagnostics) scintillation cocktail. The vials are then counted in a Packard 460 CD scintillation counter.
Specific binding is defined as total binding less binding in the presence of excess unlabeled serotonin (1 µM). Binding in the presence of various concentrations of test drug is expressed as a percent of specific binding when no drug is present. […] Linear regression analysis then yields a straight line with 95% confidence limits from which an IC₅₀ can be inversely predicted.

The target in assay [2] is T2, 5-HT₂ (Rattus norvegicus, UniProt P14842).
T2 construct: employing rat brain cortex homogenate as the receptor tissue; from tissue; host or cells: rat brain cortex, membrane homogenate
T2 sequence (P14842 whole entry): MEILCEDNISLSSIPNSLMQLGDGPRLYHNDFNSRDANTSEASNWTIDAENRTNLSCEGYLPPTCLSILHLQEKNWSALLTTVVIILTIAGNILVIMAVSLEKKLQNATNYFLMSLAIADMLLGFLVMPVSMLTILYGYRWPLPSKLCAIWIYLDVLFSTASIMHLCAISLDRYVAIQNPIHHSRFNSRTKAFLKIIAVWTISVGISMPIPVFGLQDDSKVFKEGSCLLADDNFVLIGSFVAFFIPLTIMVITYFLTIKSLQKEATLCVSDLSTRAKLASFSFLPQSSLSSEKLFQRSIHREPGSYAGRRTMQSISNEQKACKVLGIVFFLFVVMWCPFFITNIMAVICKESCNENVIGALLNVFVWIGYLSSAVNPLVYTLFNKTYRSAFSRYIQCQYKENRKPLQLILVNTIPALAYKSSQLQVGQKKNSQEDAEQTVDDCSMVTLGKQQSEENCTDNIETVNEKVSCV
The assay can be described thus: 5-HT2 inhibition of 3H-spiroperidol binding, brain cortex homogenate. Particulars: read-out: % Inhibition at 1 µM 5-HT₂.

Assay [3] addresses T3, M1 muscarinic receptor (Rattus norvegicus, UniProt P08482).
T3 construct: from tissue; host or cells: rat hippocampus, membrane fraction
T3 sequence (P08482 1-460): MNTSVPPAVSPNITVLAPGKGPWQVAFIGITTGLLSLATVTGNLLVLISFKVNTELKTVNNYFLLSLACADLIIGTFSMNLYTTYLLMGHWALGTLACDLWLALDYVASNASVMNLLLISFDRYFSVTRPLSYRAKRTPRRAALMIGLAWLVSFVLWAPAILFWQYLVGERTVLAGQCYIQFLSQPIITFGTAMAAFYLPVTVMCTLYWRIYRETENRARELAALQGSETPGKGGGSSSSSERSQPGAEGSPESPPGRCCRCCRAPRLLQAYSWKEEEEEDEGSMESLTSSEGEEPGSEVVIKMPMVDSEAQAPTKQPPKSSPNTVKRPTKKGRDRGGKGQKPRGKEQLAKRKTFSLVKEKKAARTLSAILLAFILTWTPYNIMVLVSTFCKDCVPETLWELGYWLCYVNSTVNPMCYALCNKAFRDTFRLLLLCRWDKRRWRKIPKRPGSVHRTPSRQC
The assay can be described thus: M1 muscarinic receptor binding ([3H] pirenzipine, hippocampus tissue). The method, then: The M1 muscarinic receptor binding properties of the compounds of this invention were established as follows:
The resulting pellet is resuspended in the original volume of 0.32 M aqueous sucrose. The sample is then diluted 1:2 in 10 mM Na₂HPO₄/KH₂PO₄ buffer (pH = 7.4). A 100 µL sample of the buffered tissue suspension is incubated at 25°C for 60 minutes in the dark with 10 µL of test compound or vehicle for control and [³H] pirenzipine (0.5 nM, 0.04 µCi) q.s. 1 milliliter with the buffer solution. Atropine sulfate (2 µM) is added to half the samples being processed. Binding is terminated by vacuum filtration onto Whatman GF/B filters which are washed three times with the buffer solution (3 ml/wash, 4°C). […] Specific [³H] PZ binding is defined as total binding minus binding in the presence of 2 µM atropine sulfate.

The target in assay [4] is T4, M2 receptor (Rattus norvegicus, UniProt P10980).
T4 sequence (P10980 1-466): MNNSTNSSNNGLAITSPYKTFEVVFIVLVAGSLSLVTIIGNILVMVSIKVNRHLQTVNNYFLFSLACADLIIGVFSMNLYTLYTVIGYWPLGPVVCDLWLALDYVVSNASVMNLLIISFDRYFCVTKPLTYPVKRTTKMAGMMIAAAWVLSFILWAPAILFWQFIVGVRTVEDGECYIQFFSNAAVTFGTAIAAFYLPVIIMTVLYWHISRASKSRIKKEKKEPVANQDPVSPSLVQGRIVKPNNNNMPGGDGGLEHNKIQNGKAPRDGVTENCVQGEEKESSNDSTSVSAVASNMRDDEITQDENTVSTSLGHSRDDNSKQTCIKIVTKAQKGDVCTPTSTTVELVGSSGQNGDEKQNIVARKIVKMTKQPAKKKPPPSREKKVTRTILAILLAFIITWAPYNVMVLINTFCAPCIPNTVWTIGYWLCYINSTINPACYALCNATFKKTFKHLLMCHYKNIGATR
The assay can be described thus: M2 receptor binding ([3H] quinuclidinyl benzilate, cerebellum tissue). Particulars: [3H] quinuclidinyl benzilate 0.23 nM, read-out: IC₅₀for M₂.

[5] abbreviates: at 1 µM, rat brain cortex homogenate, 3H-spiroperidol.

A word on the inhibition: it is the relative decrease from the control value, in per cent. The molecule `COc1ccccc1N1CCN(CCCNC(=O)c2cc3ccccc3[nH]2)CC1` [Example 7, N-[3-[4-(2-Methoxyphenyl)-1-piperazinyl]propyl]-(1H)-indole-2 carboxamide] displayed an inhibition at 1 µM in assay [1] of 91%. Still for that read-out and setting: to `COc1ccccc1N1CCN(CCCNC(=O)c2cc3ccccc3o2)CC1` [Example 6, N-[3-[4-(2-Methoxyphenyl)-1-piperazinyl]propyl]benzofurane-2 carboxamide] belongs 94%; to `COc1ccccc1N1CCN(CCNC(=O)CC23CC4CC(CC(C)(C4)C2)C3)CC1` [Example 12, N-[2-[4-(2-Methoxyphenyl)-1-piperazinyl]ethyl]-3-methyltricyclo[3.3.1.1^3,7]decane-1-acetic Acid Carboxamide], 98%. In turn, `O=C(NCCN1CCN(c2ncccn2)CC1)C12CC3CC(CC1C3)C2` [Example 13, N-[2-[4-(2-Pyrimidyl)-1-piperazinyl]ethyl]hexahydro-2,5-methanopentalene-3a(1H)-carboxamide] registered an inhibition at 1 µM in assay [1] of 97%. A word on the Ki: it is the equilibrium dissociation constant of an inhibitor or competing ligand from its target. Low readings indicate a stronger hold on the target, high ones a looser hold on the target. For the molecule `O=C(NCCN1CCN(c2ncccn2)CC1)C12CC3CC(CC(C3)C1)C2` [Example 2, N-[2-[4-(2-Pyrimidyl)-1-piperazinyl]ethyl]tricyclo[3.3.1.1^3,7]decane-1-carboxamide], the inhibition at 1 µM in assay [2] (setting [5]) amounted to 91%. In assay [1], this molecule returned an inhibition at 1 µM of 97% and a Ki of 1 nM. For `COc1ccccc1N1CCN(CCCNC(=O)C23CC4CC(CC(C4)C2)C3)CC1` [Example 1, N-[3-[4-(2-Methoxyphenyl)-1-piperazinyl]propyl]tricyclo[3.3.1.1^3,7]decan-1-carboxamide], in that order: 92%, 98% and 1 nM. As to `CC1(C)CC(=O)N(CCCCN2CCN(c3ncccn3)CC2)C(=O)C1` [Gepirone, 4,4-dimethyl-1-[4-[4-(2-pyrimidinyl)-1-piperazinyl]-butyl]-2,6-piperidinedione, reference compound], the inhibition at 1 µM in assay [2] amounted to 20%. For `O=C(NCCN1CCN(c2cccc(Cl)c2)CC1)C12CC3CC(CC1C3)C2` [Example 15, N-[2-[4-(3-Chlorophenyl)-1-piperazinyl]ethyl]hexahydro-2,5-methanopentalene-3a(1H)-carboxamide], the IC50 in assay [3] (rat hippocampus, [3H] pirenzipine 0.5 nM, read-out: IC₅₀for M₁) was 240 nM; in assay [4], 11 µM. Moreover, the “M₂/M₁ Ratio” value in assay [3] (ratio of IC50 for M2 to IC50 for M1) came out at 46. The same molecule displayed an inhibition at 0.1 µM in assay [1] of 99%. In assay [1], `COc1ccccc1N1CCN(CCCNC(=O)C23CC4CC(CC2C4)C3)CC1` [Example 18, N-[3-[4-(2-Methoxyphenyl)-1-piperazinyl]propyl]hexahydro-2,5-methanopentalene-3a(1H)-carboxamide] showed an inhibition at 1 µM of 99%. Still for that read-out and setting: the value for `O=C(NCCCN1CCN(c2ncccn2)CC1)C12CC3CC(CC(C3)C1)C2` [Example 10, N-[3-[4-(2-Pyrimidyl)-1-piperazinyl]propyl]tricyclo[3.3.1.1^3,7]decane-1-carboxamide] was 82%; that for `O=C(NCCN1CCN(c2ncccn2)CC1)c1cc2ccccc2o1` [Example 5, N-[2-[4-(2-Pyrimidyl)-1-piperazinyl]ethyl]benzofurane-2-carboxamide] was 83%; that for `CC12CC3CC(C1)CC(CC(=O)NCCN1CCN(c4ncccn4)CC1)(C3)C2` [Example 9, N-[2-[4-(2-Pyrimidyl)-1-piperazinyl]ethyl]-3-methyltricyclo[3.3.1.1^3,7]decane-1-acetic Acid Carboxamide] was 93%. Turning to `O=C(NCCCN1CCN(c2ncccn2)CC1)C12CC3CC(CC1C3)C2` [Example 17, N-[3-[4-(2-Pyrimidyl)-1-piperazinyl]propyl]hexahydro-2,5-methanopentalene-3a(1H)-carboxamide], in assay [1], the inhibition at 1 µM was found to be 88% and the Ki is 67 nM.

In turn, `O=C(NCCN1CCN(c2cccc(Cl)c2)CC1)C12CC3CC(CC(C3)C1)C2` [Example 4, N-[2-[4-(3-Chlorophenyl)-1-piperazinyl]ethyl]tricyclo[3.3.1.1^3,7]decane-1-carboxamide] displayed an inhibition at 1 µM in assay [1] of 100%. The same measure, in the same setting: the value for `O=C(NCCCN1CCN(c2cccc(Cl)c2)CC1)C12CC3CC(CC(C3)C1)C2` [Example 8, N-[3-[4-(3-Chlorophenyl)-1-piperazinyl]propyl]tricyclo[3.3.1.1^3,7]decane-1-carboxamide] was 94%. In assay [1], `COc1ccccc1N1CCN(CCNC(=O)C23CC4CC(CC2C4)C3)CC1` [Example 14, N-[2-[4-(2-Methoxyphenyl)-1-piperazinyl]ethyl]hexahydro-2,5-methanopentalene-3a(1H)-carboxamide] had an inhibition at 0.1 µM of 100%. In the case of `O=C(NCCCN1CCN(c2cccc(Cl)c2)CC1)C12CC3CC(CC1C3)C2` [Example 19, N-[3-[4-(3-Chlorophenyl)-1-piperazinyl]propyl]hexahydro-2,5-methanopentalene-3a(1H)-carboxamide], in assay [1], the inhibition at 0.1 µM turned out to be 75% and the Ki was determined as 20 nM. For the molecule `COc1ccccc1N1CCN(CCNC(=O)C23CC4CC(CC(C4)C2)C3)CC1` [Example 3, N-[2-[4-(2-Methoxyphenyl)-1-piperazinyl]ethyl]tricyclo[3.3.1.1^3,7]decane-1-carboxamide], the inhibition at 1 µM in assay [1] was 97%. Still for that read-out and setting: the value for `O=C1CC2(CCCC2)CC(=O)N1CCCCN1CCN(c2ncccn2)CC1` [Buspirone, reference compound] was 94%; that for `CC12CC3CC(C1)CC(CC(=O)NCCN1CCN(c4cccc(Cl)c4)CC1)(C3)C2` [Example 11, N-[2-[4-(3-Chlorophenyl)-1-piperazinyl]ethyl]-3-methyltricyclo[3.3.1.1^3,7]decane-1-acetic Acid Carboxamide] was 91%.

Source of the values: patent EP0343961B1, “Aryl- and heteroaryl piperazinyl carboxamides having central nervous system activity” (priority 1988, dated 1989).
